{"source": "ChEMBL document CHEMBL5505955", "about": "“Exploring the potential of histone demethylase inhibition in multi-therapeutic approaches for cancer treatment” (Eur J Med Chem, 2024)", "key": {"[1]": {"test_system": "NCI-H1975", "assay": "cells", "details": "Homo sapiens"}, "[2]": {"test_system": "HT-29", "assay": "Antiproliferative activity against human HT-29 cells assessed as reduction in cell viability incubated for 72 hrs by MTT assay", "type": "functional, cell-based", "details": "HT-29, 72 h"}, "[3]": {"test_system": "MIA PaCa-2", "assay": "Antiproliferative activity against human MIA PaCa-2 cells assessed as reduction in cell viability incubated for 72 hrs by MTT assay", "type": "functional, cell-based", "details": "MIA PaCa-2, 72 h"}, "[4]": {"test_system": "A2058", "assay": "Antiproliferative activity against human A2058 cells assessed as reduction in cell viability incubated for 72 hrs by MTT assay", "type": "functional, cell-based", "details": "A2058, 72 h"}, "[5]": {"test_system": "A549", "assay": "Antiproliferative activity against human A549 cells assessed as reduction in cell viability incubated for 72 hrs by MTT assay", "type": "functional, cell-based", "details": "A549, 72 h"}, "[6]": {"test_system": "Bel-7402", "assay": "animal or person", "details": "Mus musculus, Bel-7402, po, 504 h, read-out: TGI"}, "[7]": {"target": "T1, Lysine-specific histone demethylase 1A (Homo sapiens, UniProt O60341)"}, "[8]": {"target": "Histone deacetylase 1 (Homo sapiens, UniProt Q13547)", "sequence (Q13547 whole entry)": "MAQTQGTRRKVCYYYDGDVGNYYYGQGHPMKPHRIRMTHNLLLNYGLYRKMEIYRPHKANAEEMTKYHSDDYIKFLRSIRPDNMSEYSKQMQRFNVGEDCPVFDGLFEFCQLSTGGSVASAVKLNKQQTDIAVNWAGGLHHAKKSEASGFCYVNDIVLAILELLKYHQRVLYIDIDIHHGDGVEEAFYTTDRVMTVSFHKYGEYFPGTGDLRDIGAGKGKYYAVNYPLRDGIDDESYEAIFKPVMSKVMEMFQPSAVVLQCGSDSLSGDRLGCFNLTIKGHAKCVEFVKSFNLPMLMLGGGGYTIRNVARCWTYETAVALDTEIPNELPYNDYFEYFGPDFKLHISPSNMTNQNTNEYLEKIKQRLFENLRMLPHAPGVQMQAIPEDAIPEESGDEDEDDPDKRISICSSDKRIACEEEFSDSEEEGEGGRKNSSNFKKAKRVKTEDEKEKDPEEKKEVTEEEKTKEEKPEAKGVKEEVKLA", "assay": "Inhibition of HDAC1 (unknown origin)"}, "[9]": {"target": "T1, Lysine-specific histone demethylase 1A", "assay": "Inhibition of human recombinant LSD1 incubated for 60 mins by fluorescence based analysis"}, "[10]": {"target": "T2, Amine oxidase [flavin-containing] A (Homo sapiens, UniProt P21397)", "T2 sequence (P21397 whole entry)": "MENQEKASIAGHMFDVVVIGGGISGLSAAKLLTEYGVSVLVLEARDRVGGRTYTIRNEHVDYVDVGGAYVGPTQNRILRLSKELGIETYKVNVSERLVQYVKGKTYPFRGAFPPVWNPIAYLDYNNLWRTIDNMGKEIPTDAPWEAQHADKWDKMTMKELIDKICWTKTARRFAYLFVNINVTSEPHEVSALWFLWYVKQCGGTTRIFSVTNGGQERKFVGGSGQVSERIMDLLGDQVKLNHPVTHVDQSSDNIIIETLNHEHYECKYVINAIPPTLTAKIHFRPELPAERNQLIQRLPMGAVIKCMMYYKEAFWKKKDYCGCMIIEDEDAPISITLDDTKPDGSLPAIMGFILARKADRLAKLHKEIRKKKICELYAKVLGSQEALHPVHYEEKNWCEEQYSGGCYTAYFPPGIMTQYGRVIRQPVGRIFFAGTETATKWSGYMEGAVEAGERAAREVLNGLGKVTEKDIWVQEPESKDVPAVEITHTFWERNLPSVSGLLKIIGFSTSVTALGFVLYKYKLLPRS", "assay": "Inhibition of MAO-A (unknown origin) measured by MAO-GloTM method"}}, "data": [{"smiles": "C=CC(=O)Nc1cc(Nc2nccc(-c3cn(C)c4ccccc34)n2)c(OC)cc1N(C)CCN(C)C", "note": "[OSIMERTINIB]", "values": [{"measurement": "IC50", "setting": "[1]", "result": "[…]"}]}, {"smiles": "O=C(N/N=C/c1ccccc1O)c1cccc(Cl)c1", "values": [{"measurement": "IC50", "setting": "[2]", "result": 950, "unit": "nM"}, {"measurement": "IC50", "setting": "[3]", "result": 9500, "unit": "nM"}, {"measurement": "IC50", "setting": "[4]", "result": 6500, "unit": "nM"}, {"measurement": "IC50", "setting": "[5]", "result": 2400, "unit": "nM"}]}, {"smiles": "COc1ccc(S(=O)(=O)N(CCSC(=S)N2CCN(C)CC2)c2cc(OC)c(OC)c(OC)c2)cc1", "values": [{"measurement": "inhibition in vivo at 60 mg/kg", "setting": "[6]", "result": 43, "unit": "%"}]}, {"smiles": "NC1CC1c1ccc(NC(=O)CCC(=O)NCCCNCCCCNCCCNC(=O)c2ccc(NC(=O)CCCCCCC(=O)NO)cc2)cc1", "note": "(stereo unspecified)", "values": [{"measurement": "IC50", "setting": "[7]", "result": 3850, "unit": "nM"}, {"measurement": "IC50", "setting": "[8]", "result": 42.5, "unit": "nM"}]}, {"smiles": "COC1=CC(=O)OC(/C=C/c2ccccc2)C1", "note": "(stereo unspecified)", "values": [{"measurement": "IC50", "setting": "[9]", "result": 3850, "unit": "nM"}, {"measurement": "IC50", "setting": "[10]", "result": 1.29, "unit": "nM"}]}, {"smiles": "O=C(O)c1ccc(CN2CCC(CN[C@@H]3C[C@H]3c3ccccc3)CC2)cc1", "note": "[GSK2879552]", "values": [{"measurement": "IC50", "setting": "[7]", "result": 1700, "unit": "nM"}]}]}
